The numbers were not newly measured in patent EP4817601A1, “NANOPARTICLES COMPRISING SIROLIMUS AND ALBUMIN, PHARMACEUTICAL COMPOSITION FOR SUBCUTANEOUS ADMINISTRATION, COMPRISING SAME, AND PREPARATION METHOD THEREFOR” (SNBioscience Inc., priority 2023, dated 2025), which cites them from elsewhere.

For this series the following is noted: poorly soluble drug; background statement.

Take `CO[C@H]1C[C@@H]2CC[C@@H](C)[C@@](O)(O2)C(=O)C(=O)N2CCCC[C@H]2C(=O)O[C@H]([C@H](C)C[C@@H]2CC[C@@H](O)[C@H](OC)C2)CC(=O)[C@H](C)/C=C(\C)[C@@H](O)[C@@H](OC)C(=O)[C@H](C)C[C@H](C)/C=C/C=C/C=C/1C` [Sirolimus]: the “bioavailability (BA)” value was 14%.
